Experimental data taken from EP0178388A1, “Quinolinecarboxylic acid derivatives” (KYORIN PHARMACEUTICAL CO., LTD., priority 1984, dated 1986).
Converted amounts (≈) assume the structure as drawn. Structures can show the parent of a compound that is named as a salt. Where two headings read alike, the source gives them in different places.

Key:
[1] = tested on: Salmonella enteritidis IID 604; assay: In vitro antibacterial activity, MIC (standard strain); assay type: cell-based; conditions: Salmonella enterica; Salmonella enteritidis IID 604, 10^6 cells/ml, standard strain; read-out: MIC
S. faecalis IID 682 = assay: as above; assay type: cell-based; conditions: Enterococcus faecalis, IID682, S. faecalis IID 682, 10^6 cells/ml
[2] = tested on: Enterobacter cloacae IID 977; assay: as above; assay type: cell-based; conditions: IID977, Enterobacter cloacae IID 977, 10^6 cells/ml
K. pneumoniae KY(GN)6445 = assay: as above; assay type: cell-based; conditions: Klebsiella pneumoniae; K. pneumoniae KY(GN)6445, 10^6 cells/ml, standard strain; read-out: MIC
[3] = tested on: S. aureus IID 670 (Terajima); assay: as above; assay type: cell-based; conditions: Staphylococcus aureus, IID670, 10^6 cells/ml
S. pneumoniae IID 552 = assay: as above; assay type: cell-based; conditions: Streptococcus pneumoniae, IID552, S. pneumoniae IID 552, 10^6 cells/ml
Shigella sonnei IID 969 = assay: as above; assay type: cell-based; conditions: IID969, Shigella sonnei IID 969, 10^6 cells/ml
Method: (§1) The in vitro antibacterial activity has been investigated, the minimun inhibitory concentration (MIC) was determined in accordance with the method recommended by Japan Society of Chemotherapy.

P. mirabilis IID 994 = assay: as above; assay type: cell-based; conditions: Proteus mirabilis, IID994, P. mirabilis IID 994, 10^6 cells/ml
[4] = tested on: Bacillus subtilis PCI 219; assay: as above; assay type: cell-based; conditions: PCI219; Bacillus subtilis PCI 219, 10^6 cells/ml, standard strain; read-out: MIC
P. aeruginosa IFO 12689 = assay: as above; assay type: cell-based; conditions: Pseudomonas aeruginosa
[5] = tested on: Proteus vulgaris IFO 3167; assay: as above; assay type: cell-based; conditions: IFO3167; Proteus vulgaris IFO 3167, 10^6 cells/ml, standard strain; read-out: MIC
[6] = tested on: Alcaligenes faecalis 0114002; assay: as above; assay type: cell-based; conditions: Alcaligenes faecalis 0114002, 10^6 cells/ml
E. coli ATCC 10536 = assay: as above; assay type: cell-based; conditions: Escherichia coli, ATCC10536; E. coli ATCC 10536, 10^6 cells/ml, standard strain; read-out: MIC
[7] = tested on: Klebsiella pneumoniae I-220S; assay: as above; assay type: cell-based; conditions: I220S; Klebsiella pneumoniae I-220S, 10^6 cells/ml, standard strain; read-out: MIC
[8] = tested on: Citrobacter freundii IID 976; assay: as above; assay type: cell-based; conditions: IID976; Citrobacter freundii IID 976, 10^6 cells/ml, standard strain; read-out: MIC
[9] = tested on: Pseudomonas aeruginosa V-1; assay: as above; assay type: cell-based; conditions: V1; Pseudomonas aeruginosa V-1, 10^6 cells/ml, standard strain; read-out: MIC
[10] = tested on: Serratia marcescens IID 618; assay: as above; assay type: cell-based; conditions: IID618, Serratia marcescens IID 618, 10^6 cells/ml, read-out: MIC
[11] = tested on: Streptococcus pyogenes S-8; assay: as above; assay type: cell-based; conditions: S8, Streptococcus pyogenes S-8, 10^6 cells/ml
P. morganii IID 602 = assay: as above; assay type: cell-based; conditions: Morganella morganii, IID602; P. morganii IID 602, 10^6 cells/ml, standard strain; read-out: MIC
S. pyogenes IID 692 = assay: as above; assay type: cell-based; conditions: Streptococcus pyogenes, IID692, S. pyogenes IID 692, 10^6 cells/ml
[12] = tested on: Escherichia coli NIHJ JC-2; assay: as above; assay type: cell-based; conditions: NIHJJC2, Escherichia coli NIHJ JC-2, 10^6 cells/ml
[13] = tested on: Yersinia enterocolitica IID 981; assay: as above; assay type: cell-based; conditions: IID981; Yersinia enterocolitica IID 981, 10^6 cells/ml, standard strain; read-out: MIC
S. epidermidis IID 866 = assay: as above; assay type: cell-based; conditions: Staphylococcus epidermidis, IID866, S. epidermidis IID 866, 10^6 cells/ml
[14] = tested on: Acinetobacter anitratus IID 876; assay: as above; assay type: cell-based; conditions: Acinetobacter calcoaceticus, IID876; Acinetobacter anitratus IID 876, 10^6 cells/ml, standard strain; read-out: MIC
[15] = tested on: Staphylococcus aureus 209 P; assay: as above; assay type: cell-based; conditions: 10^6 cells/ml, read-out: MIC
[16] = tested on: Clostridium difficile I-E; assay: as above; assay type: cell-based; conditions: Clostridioides difficile, 10^6 cells/ml
B. fragilis 0558 = assay: as above; assay type: cell-based; conditions: Bacteroides fragilis, 0558
[17] = tested on: Peptostreptococcus anaerobius KYA 27337; assay: as above; assay type: cell-based; conditions: KYA27337, Peptostreptococcus anaerobius KYA 27337, 10^6 cells/ml
B. distasonis 8503 = assay: as above; assay type: cell-based; conditions: Parabacteroides distasonis, B. distasonis 8503, 10^6 cells/ml
[18] = tested on: C. perfringens KYA (ATCC) 13123; assay: microbe, parasite or virus in culture; assay type: cell-based; conditions: Clostridium perfringens
[19] = tested on: F. varium KYA (ATCC) 8501; assay: In vitro antibacterial activity, MIC (standard strain); assay type: cell-based; conditions: Fusobacterium varium, F. varium KYA (ATCC) 8501, 10^6 cells/ml
[20] = tested on: Bacteroides fragilis GM 7000; assay: as above; assay type: cell-based; conditions: GM7000; Bacteroides fragilis GM 7000, 10^6 cells/ml, standard strain; read-out: MIC
E. coli ML4707 [21] = assay: MIC against the infecting strain (Table 2); assay type: cell-based; conditions: Escherichia coli; E. coli ML4707 (Table 2, parts 1 and 2)
Method: as §1

B. fragilis 25285 = assay: In vitro antibacterial activity, MIC (standard strain); assay type: cell-based; conditions: Bacteroides fragilis, 25285
E. coli ML4707 [22] = assay: In vivo antibacterial activity against systemic infection in mice;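 also: ED50 in mg/kg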; conditions: Escherichia coli, ML4707, po, 1 h, E. coli ML4707, mice (ICR-S), intraperitoneal infection, oral at 1 hour after infection, challenge dose 6.0 x 10^6 cfu/mouse (part 1); read-out: ED50
Method: Experiment 2 In vivo antibacterial activity against systemic infection in mice (ICR-S)
The infections were produced by intraperitoneal infection of a suspension of the bacterial culture corresponding to the germ studied. The product was administered orally at 1 hour after the infection. The 50% effective dose (ED50) which protects 50% of the animals from death caused by the infection was determined from the relation between dosage and survival rate.

Pst. micros UPI 5464-1 = assay: In vitro antibacterial activity, MIC (standard strain); assay type: cell-based; conditions: Parvimonas micra, UPI54641, Pst. micros UPI 5464-1, 10^6 cells/ml
[23] = tested on: B. thetaiotaomicron (0661); assay: as above; assay type: cell-based; conditions: Bacteroides thetaiotaomicron; B. thetaiotaomicron (0661), 10^6 cells/ml, standard strain; read-out: MIC
[24] = tested on: Veillonella parvula KYA 10790; assay: as above; assay type: cell-based; conditions: KYA10790, Veillonella parvula KYA 10790, 10^6 cells/ml

SMILES | MIC [1] | MIC [2] | MIC (K. pneumoniae KY(GN)6445) | MIC [3] | MIC (Shigella sonnei IID 969) | MIC (P. mirabilis IID 994) | MIC [4] | MIC [5] | MIC [6] | MIC (E. coli ATCC 10536) | MIC [8] | MIC [9] | MIC [10] | MIC (P. morganii IID 602) | MIC [12] | MIC [13] | MIC (S. epidermidis IID 866) | MIC [14] | MIC [15] | other results
CC1CN(c2c(F)cc3c(=O)c(C(=O)O)cn(C4CC4)c3c2Cl)CC(C)N1 (stereo not shown) [Example 6, 8-Chloro-1-cyclopropyl-6-fluoro-1,4-dihydro-7-(3,5-dimethyl-1-piperazinyl)-4-oxoquinoline-3-carboxylic acid and its hydrochloride] | 0.1 µg/mL | 0.2 µg/mL | 0.05 µg/mL | 0.2 µg/mL | 0.05 µg/mL | 0.1 µg/mL | 0.05 µg/mL | 0.05 µg/mL | 0.78 µg/mL | 0.025 µg/mL | 0.1 µg/mL | 1.56 µg/mL | 0.2 µg/mL | 0.2 µg/mL | 0.05 µg/mL | 0.2 µg/mL | 0.2 µg/mL | 0.1 µg/mL | 0.2 µg/mL | MIC (S. faecalis IID 682): 0.78 µg/mL; MIC (S. pneumoniae IID 552): 0.78 µg/mL; MIC (P. aeruginosa IFO 12689; IFO12689, P. aeruginosa IFO 12689, 10^6 cells/ml, standard strain, read-out: MIC): 3.13 µg/mL; MIC [7]: 0.2 µg/mL; MIC [11]: 0.39 µg/mL; MIC (S. pyogenes IID 692): 0.78 µg/mL
CC1CN(c2c(F)cc3c(=O)c(C(=O)O)cn(C4CC4)c3c2F)CC(C)N1 (stereo not drawn) [Example 4, 1-Cyclopropyl-6,8-difluoro-1,4-dihydro-7-(3,5-dimethyl-l-piperazinyl)-4-oxoquinoline-3-carboxylic acid] | 0.05 µg/mL (≈ 0.132 µM) | 0.05 µg/mL (≈ 0.132 µM) | 0.025 µg/mL (≈ 0.0662 µM) | 0.2 µg/mL (≈ 0.53 µM) | 0.0125 µg/mL (≈ 0.0331 µM) | 0.1 µg/mL (≈ 0.265 µM) | 0.05 µg/mL (≈ 0.132 µM) | 0.025 µg/mL (≈ 0.0662 µM) | 0.2 µg/mL (≈ 0.53 µM) | ≤ 0.006 µg/mL | 0.025 µg/mL (≈ 0.0662 µM) | 0.39 µg/mL (≈ 1.03 µM) | 0.1 µg/mL (≈ 0.265 µM) | 0.1 µg/mL (≈ 0.265 µM) | ≤ 0.025 µg/mL | 0.1 µg/mL (≈ 0.265 µM) | 0.39 µg/mL (≈ 1.03 µM) | 0.006 µg/mL (≈ 0.0159 µM) | 0.2 µg/mL (≈ 0.53 µM) | MIC [16]: 12.5 µg/mL (≈ 33.1 µM); MIC (B. fragilis 0558): 1.56 µg/mL (≈ 4.13 µM); MIC (P. aeruginosa IFO 12689; IFO12689): 1.56 µg/mL (≈ 4.13 µM); MIC [17]: 3.13 µg/mL (≈ 8.29 µM); MIC (B. distasonis 8503): 3.13 µg/mL (≈ 8.29 µM); MIC [18]: 1.56 µg/mL (≈ 4.13 µM); MIC [19]: 12.5 µg/mL (≈ 33.1 µM); MIC [20]: 3.13 µg/mL (≈ 8.29 µM); MIC (E. coli ML4707 [21]): 0.0125 µg/mL (≈ 0.0331 µM); MIC (B. fragilis 25285): 1.56 µg/mL (≈ 4.13 µM); ED50 (E. coli ML4707 [22]): 0.13 mg/kg; MIC (Pst. micros UPI 5464-1): 0.39 µg/mL (≈ 1.03 µM); MIC [23]: 6.25 µg/mL (≈ 16.6 µM); MIC [24]: 0.39 µg/mL (≈ 1.03 µM)
